Data taken from article PMC10502144, “Anti-methicillin-resistant Staphylococcus aureus activity and safety evaluation of 14-O-[(5-ethoxycarbonyl-4,6-dimethylpyrimidine-2-yl) thioacetyl] mutilin (EDT)” (Scientific Reports, 2023).
pIC50: −log10 of the molar value. Structures can show the parent of a compound that is named as a salt. Where two headings read alike, the source gives them in different places.

How the values were obtained:
CYP3A4 = conditions: cited from earlier work
female Wistar rats = assay: Acute oral toxicity test (OECD423); type: in vivo; conditions: for Absolute organ weight, Heart / Absolute organ weight, Kidneys / Absolute organ weight, Liver / Absolute organ weight, Lungs / Absolute organ weight, Ovaries / Absolute organ weight, Spleen / Absolute organ weight, Uterus: 2000 mg/kg oral single dose; for Relative organ weight, Kidneys: organ/b.w. × 100
Protocol: Adult specific pathogen free (SPF) female Wistar rats (4–6 weeks old) were purchased from Lanzhou Veterinary Research Institute, Chinese Academy of Agricultural Sciences. Animals were kept in clean stainless steel cages (3 rats per cage), free access to food and water and maintained under the 23 °C conditions with a constant 12 h light–dark cycle. Animals were acclimatized for at least 7 days before the experiment. […] The animal study was carried out in compliance with the ARRIVE guidelines.
Acute toxicity tests of EDT were performed according to OECD423 bulletin[23]. This method can measure drug roughly LD50 with fewer experimental animals. […] Six animals were randomly separated into one treatment group (n = 3) and control group (n = 3). Rats in treatment group were orally administered with a single dose of 2000 mg/kg of EDT dissolved in vehicle (corn oil: DMSO = 4:1) in a volume of 10 mL/kg body weight (b.w.) by gavage. Animals in the control group only received 10 mL/kg vehicle. […] After first round treatment, observations were focused on mortality, behavioural symptoms and changes in skin, eyes and fur. Individual body weight was recorded at the starting of protocol and at the end of protocol. […] On the 14th day, all the surviving animals were euthanized with ketamine hydrochloride 70 mg/kg (i.p.) and their hearts, livers, spleens, lungs, kidneys, uterus and ovaries were individually observed for overt pathology and removed for relative weight calculation (organ/b.w. × 100).

[1] = Microsomal stability assay, human; type: in vitro ADME; conditions: human liver microsomes
Protocol: (§1) Mouse and human liver microsomes were thawed slowly on ice. A total of 5 mg/mL of microsomes, 2 μL of a 100 μM solution of EDT and 183 μL of 100 mM phosphate buffer were incubated 5 min at 37 °C in a water bath. Reactions were initiated using 10 μL of 20 mM NADPH. Samples were incubated in three replicates at 37 °C under gentle agitation at 150 rpm. At 0, 5, 15, 30, and 60 min, reactions were terminated by the addition of 180 μL of acetonitrile. After centrifugation (4000 rpm, 10 min), samples were then analyzed by liquid chromatography/tandem mass spectrometry (LC–MS/MS). Peak areas of the respective time point of the compound were normalized to the peak area at time point 0 min. Then half-life was calculated using linear regression from log percentage (t1/2 = − 0.693/k).

[2] = tested on: S. Typhimurium TA97a, TA98, TA100, TA102, TA1535 and Escherichia coli WP2uvrA pKM101; assay: Ames test, all tested strains (overall result and preliminary dose finding); type: cell-based, Salmonella Typhimurium; Escherichia coli
Protocol: (§2) Before the test, Salmonella Typhimurium (S. Typhimurium) TA97a, TA98, TA100, TA102, TA1535 and Escherichia coli WP2uvrA pKM101 (pKM101) were first checked for their genetic integrity, including biotin dependence, rfa marker (crystal violet), biotin, histidine dependence and presence of the plasmid pKM101 (ampicillin resistance) or pAQ1 (tetracycline resistance). […] The maximum concentration of EDT was also screened using a preliminary experiment.
(§3) DMSO (0.1 mL) was directly incorporated into 1.9 mL melted top agar as the vehicle control. […] Each strain (0.1 mL, 6–7 log10 CFU/mL) was added into 2 mL of top agar in which comprised 0.5 mL S9 (10%), serial concentrations of EDT (2000, 400, 80, 16 and 3.2 μg/plate), DMSO or control chemicals for testing with the S9. For testing without S9, 0.5 mL phosphate buffer saline (PBS, pH 7.4) replaced the S9 mix. Then, the obtained top agar was melted, poured onto the surface of […] and swirled to distribute the top agar to all surfaces of medium, followed by incubation at 37 °C for 48 h. The resultant colonies were counted manually as the number of revertant colonies per plate. The experiments were performed in triplicate and the results were expressed as the average ± SD.

[3] = Microsomal stability assay, mouse; type: in vitro ADME; conditions: mouse liver microsomes
Protocol: as §1

[4] = tested on: Salmonella Typhimurium TA1535
Protocol: as §2, §3

[5] = tested on: Salmonella Typhimurium TA97a; assay: Ames test, TA97a
Protocol: as §2, §3

[6] = tested on: Salmonella Typhimurium TA102; assay: Ames test, TA102
Protocol: as §2, §3

[7] = tested on: Salmonella Typhimurium TA100; assay: Ames test, TA100; type: cell-based
Protocol: as §2, §3

C=C[C@]1(C)C[C@@H](OC(=O)CSCCN(CC)CC)[C@]2(C)[C@H](C)CC[C@]3(CCC(=O)[C@H]32)[C@@H](C)[C@@H]1O [tiamulin, Tiamulin fumarate, reference compound]
pIC50 (CYP3A4): 5.80

C=CC1(C)CC(OC(=O)CSc2nc(C)c(C(=O)OCC)c(C)n2)C2(C)C(C)CCC3(CCC(=O)C32)C(C)C1O (stereo not shown) [EDT, 14-O-[(5-ethoxycarbonyl-4,6-dimethylpyrimidine-2-yl)thioacetyl] mutilin]
LD50 (female Wistar rats; female Wistar rats, single oral dose, OECD Guidelines 423): more than 2000 mg/kg body weight | Absolute organ weight, Heart (female Wistar rats; first round treatment, day 14): 0.71 ± 0.06 g | Absolute organ weight, Kidneys (female Wistar rats; first round treatment, day 14): 1.11 ± 0.01 g | Absolute organ weight, Liver (female Wistar rats; first round treatment, day 14): 9.66 ± 0.17 g | Absolute organ weight, Lungs (female Wistar rats; first round treatment, day 14): 1.38 ± 0.03 g | Absolute organ weight, Ovaries (female Wistar rats; first round treatment, day 14): 0.06 ± 0.00 g | Absolute organ weight, Spleen (female Wistar rats; first round treatment, day 14): 0.70 ± 0.03 g | Absolute organ weight, Uterus (female Wistar rats; first round treatment, day 14): 0.45 ± 0.02 g | Relative organ weight, Kidneys (female Wistar rats; first round treatment): 0.52 ± 0.01% | Relative organ weight, Ovaries (female Wistar rats; rat, in vivo): 0.03 ± 0.00% | Relative organ weight, Spleen (female Wistar rats; rat, in vivo): 0.33 ± 0.01% | mortality (female Wistar rats; rat, in vivo, po, 2000 mg/kg): no mortality | Absolute organ weight, Heart (female Wistar rats; second round treatment, day 14): 0.75 ± 0.03 g | Absolute organ weight, Kidneys (female Wistar rats; second round treatment, day 14): 1.11 ± 0.03 g | Absolute organ weight, Liver (female Wistar rats; second round treatment, day 14): 9.69 ± 0.06 g | Absolute organ weight, Lungs (female Wistar rats; second round treatment, day 14): 1.40 ± 0.05 g | Absolute organ weight, Ovaries (female Wistar rats; second round treatment, day 14): 0.06 ± 0.00 g | Absolute organ weight, Spleen (female Wistar rats; second round treatment, day 14): 0.71 ± 0.03 g | Absolute organ weight, Uterus (female Wistar rats; second round treatment, day 14): 0.43 ± 0.03 g | Relative organ weight, Kidneys (female Wistar rats; second round treatment): 0.52 ± 0.01% | body weight compared to the control group (female Wistar rats; single oral 2000 mg/kg, 14 days): did not produce alterations in body weight | macroscopic necropsy examination (female Wistar rats; single oral 2000 mg/kg, day 14): no gross pathological lesions | half-life at 1 μM [1]: 43.6 min | microsomal CLint at 1 μM [1]: 31.8 µL/min/mg | toxicity to the test strains, preliminary experiment ([2]; 2000 μg/plate): not toxic | toxicity to the test strains, preliminary experiment ([2]; 5000 μg/plate): inhibited the test strains | number of revertant colonies compared with the vehicle control ([2]; 3.2-2000 μg/plate, −S9 and +S9, all strains): no significantly different | half-life at 1 μM [3]: 30.1 min | microsomal CLint at 1 μM [3]: 46 µL/min/mg | number of revertant colonies per plate ([4]; TA1535, 3.2 μg/plate, +S9): 21.00 ± 4.00 | number of revertant colonies per plate ([4]; TA1535, 3.2 μg/plate, −S9): 19.67 ± 1.33 | number of revertant colonies per plate ([4]; TA1535, 16 μg/plate, +S9): 27.00 ± 2.00 | number of revertant colonies per plate ([4]; TA1535, 16 μg/plate, −S9): 23.33 ± 1.67 | number of revertant colonies per plate ([4]; TA1535, 80 μg/plate, +S9): 25.00 ± 4.00 | number of revertant colonies per plate ([4]; TA1535, 80 μg/plate, −S9): 23.33 ± 2.67 | number of revertant colonies per plate ([4]; TA1535, 400 μg/plate, +S9): 26.00 ± 3.00 | number of revertant colonies per plate ([4]; TA1535, 400 μg/plate, −S9): 23.33 ± 2.67 | number of revertant colonies per plate ([4]; TA1535, 2000 μg/plate, +S9): 19.33 ± 3.67 | number of revertant colonies per plate ([4]; TA1535, 2000 μg/plate, −S9): 17.67 ± 2.33 | number of revertant colonies per plate ([5]; 3.2 μg/plate, +S9): 57.67 ± 4.33 | number of revertant colonies per plate ([5]; 3.2 μg/plate, −S9): 52.00 ± 3.00 | number of revertant colonies per plate ([5]; 16 μg/plate, +S9): 46.00 ± 4.00 | number of revertant colonies per plate ([5]; 16 μg/plate, −S9): 44.33 ± 5.67 | number of revertant colonies per plate ([5]; 80 μg/plate, +S9): 50.33 ± 3.67 | number of revertant colonies per plate ([5]; 80 μg/plate, −S9): 53.33 ± 5.67 | number of revertant colonies per plate ([5]; 400 μg/plate, +S9): 54.33 ± 4.67 | number of revertant colonies per plate ([5]; 400 μg/plate, −S9): 56.00 ± 3.00 | number of revertant colonies per plate ([5]; 2000 μg/plate, +S9): 44.00 ± 5.00 | number of revertant colonies per plate ([5]; 2000 μg/plate, −S9): 52.00 ± 6.00 | number of revertant colonies per plate ([6]; TA102, 3.2 μg/plate, +S9): 214.33 ± 14.67 | number of revertant colonies per plate ([6]; TA102, 3.2 μg/plate, −S9): 208.00 ± 15.00 | number of revertant colonies per plate ([6]; TA102, 16 μg/plate, +S9): 218.00 ± 9.00 | number of revertant colonies per plate ([6]; TA102, 16 μg/plate, −S9): 205.00 ± 11.00 | number of revertant colonies per plate ([6]; TA102, 80 μg/plate, +S9): 223.67 ± 17.33 | number of revertant colonies per plate ([6]; TA102, 80 μg/plate, −S9): 209.33 ± 13.67 | number of revertant colonies per plate ([6]; TA102, 400 μg/plate, +S9): 219.67 ± 18.33 | number of revertant colonies per plate ([6]; TA102, 400 μg/plate, −S9): 211.00 ± 14.00 | number of revertant colonies per plate ([6]; TA102, 2000 μg/plate, +S9): 236.33 ± 19.67 | number of revertant colonies per plate ([6]; TA102, 2000 μg/plate, −S9): 228.00 ± 16.00 | number of revertant colonies per plate ([7]; TA100, 3.2 μg/plate, +S9): 119.67 ± 7.33 | number of revertant colonies per plate ([7]; TA100, 3.2 μg/plate, −S9): 109.00 ± 8.00 | number of revertant colonies per plate ([7]; TA100, 16 μg/plate, +S9): 103.67 ± 9.33 | number of revertant colonies per plate ([7]; TA100, 16 μg/plate, −S9): 101.00 ± 9.00 | number of revertant colonies per plate ([7]; TA100, 80 μg/plate, +S9): 118.67 ± 14.33 | number of revertant colonies per plate ([7]; TA100, 80 μg/plate, −S9): 105.33 ± 13.67 | number of revertant colonies per plate ([7]; TA100, 400 μg/plate, +S9): 134.33 ± 12.67 | number of revertant colonies per plate ([7]; TA100, 400 μg/plate, −S9): 129.67 ± 15.33 | number of revertant colonies per plate ([7]; TA100, 2000 μg/plate, +S9): 137.00 ± 14.00 | number of revertant colonies per plate ([7]; TA100, 2000 μg/plate, −S9): 122.67 ± 11.33
